Assay results reported in PMC6701825, “Antiproliferative and Antimigratory Effects of a Novel YAP–TEAD Interaction Inhibitor Identified Using in Silico Molecular Docking” (Journal of Medicinal Chemistry, 2019).

Experiments:
[1] = tested on: HeLa cells; assay: Live/dead cell viability assay (ethidium homodimer-1) in HeLa cells; type: cell-based; conditions: 6 hours
Method: Cell viability was quantified using the live/dead viability/cytotoxicity assay standard protocol (Invitrogen). Maximum cell death was quantified by incubating cells for 10 min with 0.1% Triton-X, followed by incubation with 0.4 μM ethidium homodimer-1 for an additional 10 min. Fluorescence was measured using a GloMax Discover multiplate reader (Promega).
Supplement Figure 3: Effect of shortlisted compounds on cell viability
(§1) HeLa cells transduced with TEAD-NLUC reporter were treated with indicated compounds at 100 µM for 6 hours (n=3). Cell viability was quantified by staining with 0.4 µM ethidium homodimer-1 and ethidium homodimer-1 uptake quantified by measuring fluorescence at 645 nm using a Glomax Discover plate reader.
(1 picture or pasted object on this page, not shown here)
as §1, with “Supplement Figure 6: Effect of CPD3, CPD3.1, CPD3.2 and CPD 3.3 on cell viability HeLa” for “HeLa”, “concentrations of CPD3, CPD3.1, CPD3.2 and CPD 3.3” for “compounds at 100 µM”, “plate” for “plate reader.”

[2] = tested on: TEAD-dependent transcriptional activity; assay: 8xTEAD secreted nanoluciferase (TEAD-NLUC) reporter assay in HeLa cells; type: cell-based, human; conditions: HeLa, indicated concentrations, 6 h
Description: The shortlisted sets of 16 compounds were first assayed for their ability to inhibit TEAD-dependent transcriptional activity in HeLa cells that had been transduced with a recombinant lentiviral vector expressing secreted bioluminescent nanoluciferase (NLUC) reporter gene enzyme, which is expressed under the control of a promoter region containing eight TEAD DNA-binding elements (TEAD-NLUC).
Compounds were initially screened for ability to inhibit TEAD-dependent transcriptional activity in HeLa cells transduced with a lentiviral vector expressing secreted nanoluciferase under the control of multimerized TEAD consensus elements (5′-[…]-3′). 8xTEAD NanoLuc was generated by cloning the 8xTEAD promoter from the 8xTEAD-Luc plasmid (Addgene #34615) into the pENTR gateway entry vector (Promega). This was then recombined into pLNT-sec-Nluc-2A-eGFP destination vector (supplied by Tristan McKay; University of Manchester). Lentiviruses were generated by Viafect-mediated co-transfection of pLNT8x-TEAD-sec-Nluc-2A-eGFP, Δ8.9, and VSV-G vectors into HEK293T cells (ATCC), and lentiviral-containing culture supernatants were used to infect HeLa cells in the presence of 6 μg/mL polybrene. For compound screening, 8xTEAD NanoLuc-transduced HeLa cells were seeded at 2 × 10^4 cells/well in 96-well plates. After 48 h, the cells were washed in PBS and incubated with test compounds at the indicated concentrations for 2 h. The cells were washed again in PBS and incubated with the compound for a further 4 h. Conditioned culture medium (50 μL) was assayed for secreted nanoluciferase activity using NanoGlo activity assays kit (Promega) and a Glomax Discover luminometer.

[3] = indicated concentrations, HeLa (Supplement Figure 6)

| Structure (SMILES) | effect on cell viability [1, 3] | effect on TEAD-NLUC activity [2] | effect on cell viability ([1]; 100 µM, HeLa TEAD-NLUC cells) |
| --- | --- | --- | --- |
| OCC(O)CN1CCNCC1 (centres unmarked) [CPD3.2] | Neither CPD3.2 nor CPD3.3 had any effect | Neither CPD3.2 nor CPD3.3 had any effect |  |
| O=C(NCCn1ncc2c(N3CCN(c4ncccn4)CC3)ncnc21)C12CC3CC(CC(C3)C1)C2 [CPD8] |  |  | without significantly affecting cell viability |
| O=C(O)c1ccco1 [CPD3.3] | Neither CPD3.2 nor CPD3.3 had any effect | Neither CPD3.2 nor CPD3.3 had any effect |  |
